From US9427001B2, “Enhanced bioavailable iodine molecules” (ZINPRO CORPORATION, priority 2011, dated 2016)
Like-named read-outs stand apart in the source and are kept apart here.

Experiments:
[1] = nonlactating pregnant beef cows; 60 mg Iodine/day for 10 days
[2] = nonlactating pregnant beef cows, bolus

| Substance | Average Serum iodine level (day 2-day 14) [1] | Serum iodine Day 10 (last treatment day) [1] | Average Serum iodine level (day 2-day 14) ([2]; 60 mg Iodine/day for 10 days (day 0-day 10), average of day 2-14) | Serum iodine Day 10 (last treatment day) ([2]; 60 mg Iodine/day for 10 days, peak value at day 10) | Blood levels of iodine compared with CaIO3 or EDDI ([2]; 60 mg iodine day 0-day 10) |
| --- | --- | --- | --- | --- | --- |
| Zinc Hydroxy-Methylthio-Butyric Acid Iodide [Example III] | 386 | 630 |  |  |  |
| Zinc Lysine Diiodide [Structure I] |  |  | 184 | 380 | higher blood levels of iodine than CaIO3 or EDDI |
